Test results as given in patent US11117900B2 (Vertex Pharmaceuticals Incorporated, priority 2012, dated 2021).

Test system: HCT116 colorectal cancer cells
Experiment: Cisplatin sensitization assay (96 h MTS cell viability);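 further: compound concentration needed to lower the IC50 of Cisplatin alone by a set fold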
Type: cell-based
Conditions: Cisplatin sensitization value
Outline: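 The MTS viability read, after 1 h with reagent, followed 96 h of co-treatment at 37° C. in 5% CO2. Both compound and cisplatin were titrated 2-fold from a 10 μM top final concentration in a complete concentration matrix on HCT116 cells. Scores +++/++/+ reflect cisplatin sensitization value ranges.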

Row | SMILES | Cisplatin Sensitization Assay
1 | CN1CC2CN(C(=O)C3CCN(c4c(F)cncc4NC(=O)c4c(N)nn5cc(F)cnc45)CC3)CC2C1 (stereo not drawn) [I-G-18, 2-amino-6-fluoro-N-(5-fluoro-4-(4-(5-methyloctahydropyrrolo[3,4-c]pyrrole-2-carbonyl)piperidin-1-yl)pyridin-3-yl)pyrazolo[1,5-a]pyrimidine-3-carboxamide] | +++ (Compounds with a Cisplatin sensitization value of <0.02 μM are marked with “+++.”)
2 | CC(C)(C)NC(=O)C1CCN(c2c(F)cncc2NC(=O)c2c(N)nn3cc(F)cnc23)CC1 [I-G-19, 2-amino-N-(4-(4-(tert-butylcarbamoyl)piperidin-1-yl)-5-fluoropyridin-3-yl)-6-fluoropyrazolo[1,5-a]pyrimidine-3-carboxamide] | ++ (Compounds with a Cisplatin sensitization value >0.02 μM but <0.2 μM are marked with “++.”)
3 | CN1CCC(NC(=O)C2CCN(c3c(F)cncc3NC(=O)c3c(N)nn4cc(F)cnc34)CC2)CC1 [I-G-20, 2-amino-6-fluoro-N-(5-fluoro-4-(4-((1-methylpiperidin-4-yl)carbamoyl)piperidin-1-yl)pyridin-3-yl)pyrazolo[1,5-a]pyrimidine-3-carboxamide] | + (Compounds with a Cisplatin sensitization value >0.2 μM but <5 μM are marked with “+.”)
4 | COC1CN(C(=O)C2CCN(c3c(F)cncc3NC(=O)c3c(N)nn4cc(F)cnc34)CC2)C1 [I-G-21, 2-amino-6-fluoro-N-(5-fluoro-4-(4-(3-methoxyazetidine-1-carbonyl)piperidin-1-yl)pyridin-3-yl)pyrazolo[1,5-a]pyrimidine-3-carboxamide] | +++ (Compounds with a Cisplatin sensitization value of <0.02 μM are marked with “+++.”)
5 | CN(C)C1CN(C(=O)C2CCN(c3c(F)cncc3NC(=O)c3c(N)nn4cc(F)cnc34)CC2)C1 [I-G-22, 2-amino-N-(4-(4-(3-(dimethylamino)azetidine-1-carbonyl)piperidin-1-yl)-5-fluoropyridin-3-yl)-6-fluoropyrazolo[1,5-a]pyrimidine-3-carboxamide] | +++ (Compounds with a Cisplatin sensitization value of <0.02 μM are marked with “+++.”)
6 | CN1CC(NC(=O)C2CCN(c3c(F)cncc3NC(=O)c3c(N)nn4cc(F)cnc34)CC2)C1 [I-G-23, 2-amino-6-fluoro-N-(5-fluoro-4-(4-((1-methylazetidin-3-yl)carbamoyl)piperidin-1-yl)pyridin-3-yl)pyrazolo[1,5-a]pyrimidine-3-carboxamide] | +++ (Compounds with a Cisplatin sensitization value of <0.02 μM are marked with “+++.”)
7 | CN1CCC(NC(=O)C2CCN(c3c(F)cncc3NC(=O)c3c(N)nn4cc(F)cnc34)CC2)C1 (stereo not drawn) [I-G-24, 2-amino-6-fluoro-N-(5-fluoro-4-(4-((1-methylpyrrolidin-3-yl)carbamoyl)piperidin-1-yl)pyridin-3-yl)pyrazolo[1,5-a]pyrimidine-3-carboxamide] | +++ (Compounds with a Cisplatin sensitization value of <0.02 μM are marked with “+++.”)
8 | CN1CCN(C(=O)C2(C#N)CCN(c3c(F)cncc3NC(=O)c3c(N)nn4cc(F)cnc34)CC2)CC1 [I-G-25, 2-amino-N-(4-(4-cyano-4-(4-methylpiperazine-1-carbonyl)piperidin-1-yl)-5-fluoropyridin-3-yl)-6-fluoropyrazolo[1,5-a]pyrimidine-3-carboxamide] | +++ (Compounds with a Cisplatin sensitization value of <0.02 μM are marked with “+++.”)
9 | CN(C)CCCNC(=O)C1CCN(c2c(F)cncc2NC(=O)c2c(N)nn3cc(F)cnc23)CC1 [I-G-26, 2-amino-N-(4-(4-((3-(dimethylamino)propyl)carbamoyl)piperidin-1-yl)-5-fluoropyridin-3-yl)-6-fluoropyrazolo[1,5-a]pyrimidine-3-carboxamide] | ++ (Compounds with a Cisplatin sensitization value >0.02 μM but <0.2 μM are marked with “++.”)
10 | CC1(C)CN(C(=O)C2CCN(c3c(F)cncc3NC(=O)c3c(N)nn4cc(F)cnc34)CC2)CCN1 [I-G-27, 2-amino-N-(4-(4-(3,3-dimethylpiperazine-1-carbonyl)piperidin-1-yl)-5-fluoropyridin-3-yl)-6-fluoropyrazolo[1,5-a]pyrimidine-3-carboxamide] | ++ (Compounds with a Cisplatin sensitization value >0.02 μM but <0.2 μM are marked with “++.”)
11 | Nc1nn2cc(F)cnc2c1C(=O)Nc1cncc(F)c1N1CCC(C(=O)N2CCNC3(CC3)C2)CC1 [I-G-28, N-(4-(4-(4,7-diazaspiro[2.5]octane-7-carbonyl)piperidin-1-yl)-5-fluoropyridin-3-yl)-2-amino-6-fluoropyrazolo[1,5-a]pyrimidine-3-carboxamide] | +++ (Compounds with a Cisplatin sensitization value of <0.02 μM are marked with “+++.”)
12 | CN(C)C(=O)C1CCN(c2c(F)cncc2NC(=O)c2c(N)nn3cc(F)cnc23)CC1 [I-G-29, 2-amino-N-(4-(4-(dimethylcarbamoyl)piperidin-1-yl)-5-fluoropyridin-3-yl)-6-fluoropyrazolo[1,5-a]pyrimidine-3-carboxamide] | +++ (Compounds with a Cisplatin sensitization value of <0.02 μM are marked with “+++.”)
13 | CN(C)CCNC(=O)C1CCN(c2c(F)cncc2NC(=O)c2c(N)nn3cc(F)cnc23)CC1 [I-G-30, 2-amino-N-(4-(4-((2-(dimethylamino)ethyl)carbamoyl)piperidin-1-yl)-5-fluoropyridin-3-yl)-6-fluoropyrazolo[1,5-a]pyrimidine-3-carboxamide] | +++ (Compounds with a Cisplatin sensitization value of <0.02 μM are marked with “+++.”)
14 | CN(C)CCN(C)C(=O)C1CCN(c2c(F)cncc2NC(=O)c2c(N)nn3cc(F)cnc23)CC1 [I-G-31, 2-amino-N-(4-(4-((2-(dimethylamino)ethyl)(methyl)carbamoyl)piperidin-1-yl)-5-fluoropyridin-3-yl)-6-fluoropyrazolo[1,5-a]pyrimidine-3-carboxamide] | +++ (Compounds with a Cisplatin sensitization value of <0.02 μM are marked with “+++.”)
15 | Nc1nn2cc(F)cnc2c1C(=O)Nc1cncc(F)c1N1CCC(C(=O)N2CCN(C3COC3)CC2)CC1 [I-G-32, 2-amino-6-fluoro-N-[5-fluoro-4-[4-[4-(oxetan-3-yl)piperazine-1-carbonyl]-1-piperidyl]-3-pyridyl]pyrazolo[1,5-a]pyrimidine-3-carboxamide] | +++ (Compounds with a Cisplatin sensitization value of <0.02 μM are marked with “+++.”)
16 | CNC(=O)C1CCN(c2c(F)cncc2NC(=O)c2c(N)nn3cc(F)cnc23)CC1 [I-G-33, 2-amino-6-fluoro-N-(5-fluoro-4-(4-(methylcarbamoyl)piperidin-1-yl)pyridin-3-yl)pyrazolo[1,5-a]pyrimidine-3-carboxamide] | +++ (Compounds with a Cisplatin sensitization value of <0.02 μM are marked with “+++.”)
17 | CNC1CN(C(=O)C2CCN(c3c(F)cncc3NC(=O)c3c(N)nn4cc(F)cnc34)CC2)C1 [I-G-34, 2-amino-6-fluoro-N-(5-fluoro-4-(4-(3-(methylamino)azetidine-1-carbonyl)piperidin-1-yl)pyridin-3-yl)pyrazolo[1,5-a]pyrimidine-3-carboxamide] | +++ (Compounds with a Cisplatin sensitization value of <0.02 μM are marked with “+++.”)
18 | Nc1nn2cc(F)cnc2c1C(=O)Nc1cncc(F)c1N1CCC(C(=O)N2CCN(C3CCC3)CC2)CC1 [I-G-35, 2-amino-N-(4-(4-(4-cyclobutylpiperazine-1-carbonyl)piperidin-1-yl)-5-fluoropyridin-3-yl)-6-fluoropyrazolo[1,5-a]pyrimidine-3-carboxamide] | +++ (Compounds with a Cisplatin sensitization value of <0.02 μM are marked with “+++.”)
19 | Nc1nn2cc(F)cnc2c1C(=O)Nc1cncc(F)c1N1CCC(C(=O)N2CCOCC2)CC1 [I-G-36, 2-amino-6-fluoro-N-(5-fluoro-4-(4-(morpholine-4-carbonyl)piperidin-1-yl)pyridin-3-yl)pyrazolo[1,5-a]pyrimidine-3-carboxamide] | +++ (Compounds with a Cisplatin sensitization value of <0.02 μM are marked with “+++.”)
20 | Nc1nn2cc(F)cnc2c1C(=O)Nc1cncc(F)c1N1CCC(C(=O)NC2COC2)CC1 [I-G-37, 2-amino-6-fluoro-N-(5-fluoro-4-(4-(oxetan-3-ylcarbamoyl)piperidin-1-yl)pyridin-3-yl)pyrazolo[1,5-a]pyrimidine-3-carboxamide] | ++ (Compounds with a Cisplatin sensitization value >0.02 μM but <0.2 μM are marked with “++.”)
21 | CN1CCN(C(=O)C2CCN(c3c(F)cncc3NC(=O)c3c(N)nn4cc(F)cnc34)CC2)CC12CC2 [I-G-38, 2-amino-6-fluoro-N-(5-fluoro-4-(4-(4-methyl-4,7-diazaspiro[2.5]octane-7-carbonyl)piperidin-1-yl)pyridin-3-yl)pyrazolo[1,5-a]pyrimidine-3-carboxamide] | +++ (Compounds with a Cisplatin sensitization value of <0.02 μM are marked with “+++.”)
22 | COCCN(C)C(=O)C1CCN(c2c(F)cncc2NC(=O)c2c(N)nn3cc(F)cnc23)CC1 [I-G-40, 2-amino-6-fluoro-N-(5-fluoro-4-(4-((2-methoxyethyl)(methyl)carbamoyl)piperidin-1-yl)pyridin-3-yl)pyrazolo[1,5-a]pyrimidine-3-carboxamide] | +++ (Compounds with a Cisplatin sensitization value of <0.02 μM are marked with “+++.”)
23 | Nc1nn2cc(F)cnc2c1C(=O)Nc1cncc(F)c1N1CCC(C(=O)N2CC(O)C2)CC1 [I-G-41, 2-amino-6-fluoro-N-(5-fluoro-4-(4-(3-hydroxyazetidine-1-carbonyl)piperidin-1-yl)pyridin-3-yl)pyrazolo[1,5-a]pyrimidine-3-carboxamide] | +++ (Compounds with a Cisplatin sensitization value of <0.02 μM are marked with “+++.”)
24 | Nc1nn2cc(F)cnc2c1C(=O)Nc1cncc(F)c1N1CCC(C(=O)NCCN2CCC2)CC1 [I-G-42, 2-amino-N-(4-(4-((2-(azetidin-1-yl)ethyl)carbamoyl)piperidin-1-yl)-5-fluoropyridin-3-yl)-6-fluoropyrazolo[1,5-a]pyrimidine-3-carboxamide] | +++ (Compounds with a Cisplatin sensitization value of <0.02 μM are marked with “+++.”)
